Measurements reported in patent US9133187B2, “Serine/threonine kinase inhibitors” (ARRAY BIOPHARMA INC., priority 2011, dated 2015).
Structures can show the parent of a compound that is named as a salt.

How the values were obtained:
[1] = test system: PMA-stimulated P90RSK(Ser380) phosphorylation in HepG2 cells; experiment: Cellular P90RSK(Ser380) Phosphorylation Assay; type: cell-based; settings: Homo sapiens, 1.5 h compound incubation, PMA stimulation, pP90RSK(Ser380) normalized to GAPDH, read-out: Cell Assay IC50
Protocol: Inhibition of PMA-stimulated P90RSK(Ser380) phosphorylation was determined by the following in vitro cellular mechanistic assay, which comprises incubating cells with a compound for 1.5 hours and quantifying fluorescent pP90RSK(Ser380) signal on fixed cells and normalizing to GAPDH signal.
Materials and Methods: HepG2 cells were obtained from ATCC and grown in DMEM supplemented with 10% fetal bovine serum. Cells were plated in 96-well plates at 35,000 cells/well and allowed to attach overnight at 37° C./5% CO2. Diluted compounds were then added at a final concentration of 0.5% DMSO. After 1.5 hour compound incubation, cells were stimulated with the addition of PMA (phorbol 12-myristate 13-acetate) at a final concentration of 100 ng/mL; the PMA stimulation was a 30-minute incubation at 37° C./5% CO2. After the 30-minute PMA stimulation, cells were washed with PBS and fixed in 3.7% formaldehyde in PBS at room temperature for 15-20 minutes. This was followed by another wash in PBS and then permeabilization in 100% MeOH at room temperature for 10-15 minutes. Following the permeabilization incubation, cells were washed in PBS/0.05% Tween-20, followed by a block in Odyssey blocking buffer (LI-COR Biosciences) for at least 1 hour. Antibodies to phosphorylated P90RSK(Ser380) (Cell Signaling #9335, rabbit monoclonal) and GAPDH (Fitzgerald 10R-G109a, mouse monoclonal) were added to the cells and incubated overnight at 4° C. pP90RSK(Ser380) antibody was used at a 1:250 dilution; GAPDH was used at a 1:10,000 dilution. After washing with PBS/0.05% Tween-20, the cells were incubated with fluorescently-labeled secondary antibodies (Anti-rabbit-Alexa Flour680, Invitrogen Cat#A21109; Anti-mouse-IRDye800CW, Rockland Inc. Cat#610-131-121) for 1 hour. Both secondary antibodies were used at a 1:1000 dilution. Cells were then washed and analyzed for fluorescence at both wavelengths using the Odyssey Infrared Imaging System (LI-COR Biosciences). Phosphorylated P90RSK(Ser380) signal was normalized to GAPDH signal. Representative date is in TABLE III (infra).

[2] = molecular target: human ERK-2 (Mitogen Activated Kinase 1) (Homo sapiens (Human), UniProt P28482); experiment: ERK-2 Enzymatic Assay; type: biochemical; settings: 5 nM ERK-2, 25 μM ATP, Omnia peptide S/T17; read-out: ERK Inhibition IC50
Protocol: Compounds were tested in an enzymatic assay using human ERK-2 (Mitogen Activated Kinase 1), recombinantly expressed as an n-terminal 6-His fusion protein in E. coli and corresponding to aa 8-360. The substrate used was the fluorescent Omnia peptide S/T17 (Invitrogen of Carlsbad, Calif.; Cat. KNZ1171C). Test compounds were diluted in DMSO in 3-fold serial dilutions at 100× final concentrations. […] The assay was run at ambient temperature in a white 384-well polypropylene plate (Nunc, Inc of Naperville, Ill.; Cat. 267462) collecting data every 50 seconds for approximately 30 minutes on an Envision plate reader (PerkinElmer, Inc. of Waltham, Mass.); Excitation 340 nm/Emission 495 nm. The data collected from each well was fit to a straight line and the resulting rates were used to calculate percent of control. Percent of control was plotted against compound concentration and IC50 values were determined using a four-parameter fit.

human ERK-2 (Mitogen Activated Kinase 1), sequence (P28482 8-360): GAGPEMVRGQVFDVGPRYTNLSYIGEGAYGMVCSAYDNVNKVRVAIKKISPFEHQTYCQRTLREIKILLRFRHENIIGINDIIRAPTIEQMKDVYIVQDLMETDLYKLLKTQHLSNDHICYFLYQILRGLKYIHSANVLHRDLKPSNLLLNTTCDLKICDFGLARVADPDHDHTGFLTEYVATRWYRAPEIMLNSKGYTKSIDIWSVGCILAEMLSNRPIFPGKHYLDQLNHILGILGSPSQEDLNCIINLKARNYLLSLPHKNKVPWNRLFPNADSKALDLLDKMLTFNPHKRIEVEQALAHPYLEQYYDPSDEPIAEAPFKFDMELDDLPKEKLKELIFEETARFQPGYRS

Molecule `Cc1cccc(CCNc2ncc3c(n2)CN(C(=O)N[C@H](CO)c2ccc(F)c(Cl)c2)CC3)n1` [II-10, 2-[2-(6-Methyl-pyridin-2-yl)-ethylamino]-5,8-dihydro-6H-pyrido[3,4-d]pyrimidine-7-carboxylic acid [(S)-1-(3-chloro-4-fluoro-phenyl)-2-hydroxy-ethyl]-amide] has an IC50 [1] of 20800 nM and an IC50 [2] of 61 nM.
With `CS(=O)(=O)CC[C@@H](NC(=O)N1CCc2cnc(NC3CCOCC3)nc2C1)c1ccc(Cl)c(Cl)c1` [Compound I-105, (R)—N-(1-(3,4-dichlorophenyl)-3-(methylsulfonyl)propyl)-2-(tetrahydro-2H-pyran-4-ylamino)-5,6-dihydropyrido[3,4-d]pyrimidine-7(8H)-carboxamide] the IC50 [1] was 101 nM and the IC50 [2] was 2.6 nM.
`CC(C)Nc1ncc2c(n1)CN(C(=O)NC1(c3ccc(Cl)c(Cl)c3)CCNCC1)CC2` [Compound I-93, N-(4-(3,4-dichlorophenyl)piperidin-4-yl)-2-(isopropylamino)-5,6-dihydropyrido[3,4-d]pyrimidine-7(8H)-carboxamide] showed an IC50 [1] of 6200 nM and an IC50 [2] of 3.8 nM.
In the case of `CC(CF)Nc1ncc2c(n1)CN(C(=O)N[C@H](CO)c1ccc(Cl)c(Cl)c1)CC2` (stereo partly drawn) [Compound I-60, N—((S)-1-(3,4-dichlorophenyl)-2-hydroxyethyl)-2-(1-fluoropropan-2-ylamino)-5,6-dihydropyrido[3,4-d]pyrimidine-7(8H)-carboxamide], the IC50 [1] is reported as 100 nM and the IC50 [2] is reported as 3.3 nM.
`CC(C)Nc1ncc2c(n1)CN(C(=O)N[C@H](CCO)c1ccc(C(F)(F)F)c(F)c1)CC2` [II-72, 2-Isopropylamino-5,8-dihydro-6H-pyrido[3,4-d]pyrimidine-7-carboxylic acid [(R)-1-(3-fluoro-4-trifluoromethyl-phenyl)-3-hydroxy-propyl]-amide] showed an IC50 [1] of 208 nM and an IC50 [2] of 7.2 nM.
In the case of `CC(C)Nc1ncc2c(n1)CN(C(=O)CCc1ccc(Cl)cc1Cl)CC2` [II-24, 3-(2,4-Dichloro-phenyl)-1-(2-isopropylamino-5,8-dihydro-6H-pyrido[3,4-d]pyrimidin-7-yl)-propan-1-one], the IC50 [1] is reported as 50000 nM and the IC50 [2] is reported as 244 nM.
For `COCC[C@@H](CO)Nc1ncc2c(n1)CN(C(=O)N[C@H](C)c1ccc(Cl)c(Cl)c1)CC2` [II-399, 2-((S)-1-Hydroxymethyl-3-methoxy-propylamino)-5,8-dihydro-6H-pyrido[3,4-d]pyrimidine-7-carboxylic acid [(R)-1-(3,4-dichloro-phenyl)-ethyl]-amide], the IC50 [1] was 287 nM and the IC50 [2] was 3.03 nM.
With `CC(C)Nc1ncc2c(n1)CN(C(=O)N[C@H](CCN)c1ccc(C(F)(F)F)cc1)CC2` [Compound I-119, (R)—N-(3-amino-1-(4-(trifluoromethyl)phenyl)propyl)-2-(isopropylamino)-5,6-dihydropyrido[3,4-d]pyrimidine-7(8H)-carboxamide] the IC50 [1] was 694 nM and the IC50 [2] was 1.8 nM.
Work on `C[C@@H](NC(=O)N1CCc2cnc(N[C@H]3C[C@@H](O)C3)nc2C1)c1ccc(Cl)c(Cl)c1` [II-371, 2-((1S,3S)-3-Hydroxy-cyclobutylamino)-5,8-dihydro-6H-pyrido[3,4-d]pyrimidine-7-carboxylic acid [(R)-1-(3,4-dichloro-phenyl)-ethyl]amide] yielded an IC50 [1] of 90 nM and an IC50 [2] of 3.15 nM.
In the case of `COCCOC[C@@H](NC(=O)N1CCc2cnc(N[C@@H](C)CO)nc2C1)c1ccc(F)c(Cl)c1` [II-78, 2-((S)-2-Hydroxy-1-methyl-ethylamino)-5,8-dihydro-6H-pyrido[3,4-d]pyrimidine-7-carboxylic acid [(S)-1-(3-chloro-4-fluoro-phenyl)-2-(2-methoxy-ethoxy)-ethyl]-amide], the IC50 [1] is reported as 1400 nM and the IC50 [2] is reported as 17.7 nM.
`C[C@@H](CO)Nc1ncc2c(n1)CN(C(=O)NCc1cnc(C(F)(F)F)nc1)CC2` [Compound I-109, 2-((S)-2-Hydroxy-1-methyl-ethylamino)-5,8-dihydro-6H-pyrido[3,4-d]pyrimidine-7-carboxylic acid (2-trifluoromethyl-pyrimidin-5-ylmethyl)-amide] gave an IC50 [1] of 3300 nM and an IC50 [2] of 92.7 nM.
`CC(C)Nc1ncc2c(n1)CN(C(=O)N[C@H](CNS(C)(=O)=O)c1ccc(F)c(Cl)c1)CC2` [II-43, 2-Isopropylamino-5,8-dihydro-6H-pyrido[3,4-d]pyrimidine-7-carboxylic acid [(S)-1-(3-chloro-4-fluoro-phenyl)-2-methanesulfonylamino-ethyl]-amide] gave an IC50 [1] of 917 nM and an IC50 [2] of 7.1 nM.
`C[C@@H](CO)Nc1ncc2c(n1)CN(C(=O)NC1CNCC1c1ccc(C(F)(F)F)cc1)CC2` (mixture of isomers) [II-171, 2-(2-Hydroxy-1-methyl-ethylamino)-5,8-dihydro-6H-pyrido[3,4-d]pyrimidine-7-carboxylic acid [4-(4-trifluoromethyl-phenyl)-pyrrolidin-3-yl]-amide] showed an IC50 [1] of 10000 nM and an IC50 [2] of 0.7 nM.
`CC(C)Nc1ncc2c(n1)CN(C(=O)NCc1cc3ccccc3[nH]1)CC2` [II-195, 2-Isopropylamino-5,8-dihydro-6H-pyrido[3,4-d]pyrimidine-7-carboxylic acid (1H-indol-2-ylmethyl)-amide] showed an IC50 [1] of 281 nM and an IC50 [2] of 6.6 nM.
Molecule `CNC[C@@H](NC(=O)N1CCc2cnc(Nc3ccc(F)cc3)nc2C1)c1ccc(C(F)(F)F)c(F)c1` [Compound I-68, (S)—N-(1-(3-fluoro-4-(trifluoromethyl)phenyl)-2-(methylamino)ethyl)-2-(4-fluorophenylamino)-5,6-dihydropyrido[3,4-d]pyrimidine-7(8H)-carboxamide hydrochloride] has an IC50 [1] of 146 nM and an IC50 [2] of 2.3 nM.
Work on `N#CC[C@@H](NC(=O)N1CCc2cnc(NC3CCOCC3)nc2C1)c1ccc(F)c(Cl)c1` [Compound I-59, (R)—N-(1-(3-chloro-4-fluorophenyl)-2-cyanoethyl)-2-(tetrahydro-2H-pyran-4-ylamino)-5,6-dihydropyrido[3,4-d]pyrimidine-7(8H)-carboxamide] yielded an IC50 [1] of 85.5 nM and an IC50 [2] of 0.6 nM.
`C[C@H](Cc1ccc(Cl)cc1)NC(=O)N1CCc2cnc(N[C@@H](C)CO)nc2C1` [II-136, 2-(2-Hydroxy-1-methyl-ethylamino)-5,8-dihydro-6H-pyrido[3,4-d]pyrimidine-7-carboxylic acid [2-(4-chloro-phenyl)-1-methyl-ethyl]-amide] was tested, and the IC50 [1] was 464 nM and the IC50 [2] was 2.2 nM.
For `O=C(N1CCc2cnc(NC3CCOCC3)nc2C1)N1CCCC1c1ccc(F)cc1` (stereo not drawn) [Compound I-134, (2-(4-fluorophenyl)pyrrolidin-1-yl)(2-(tetrahydro-2H-pyran-4-ylamino)-5,6-dihydropyrido[3,4-d]pyrimidin-7(8H)-yl)methanone], the IC50 [1] was 1200 nM and the IC50 [2] was 20.4 nM.
Work on `O=C(NC(c1cn[nH]c1)c1ccc(Cl)c(F)c1)N1CCc2cnc(NC3CCOCC3)nc2C1` (stereo not drawn) [Compound I-7, N-((4-chloro-3-fluorophenyl)(1H-pyrazol-4-yl)methyl)-2-(tetrahydro-2H-pyran-4-ylamino)-5,6-dihydropyrido[3,4-d]pyrimidine-7(8H)-carboxamide] yielded an IC50 [1] of 43.5 nM and an IC50 [2] of 1.5 nM.
`CC[C@@H](NC(=O)N1CCc2cnc(N[C@H]3CC[C@H](O)C3)nc2C1)c1ccc(C(F)(F)F)c(F)c1` [Compound I-37, N—((R)-1-(3-fluoro-4-(trifluoromethyl)phenyl)propyl)-2-((1S,3S)-3-hydroxycyclopentylamino)-5,6-dihydropyrido[3,4-d]pyrimidine-7(8H)-carboxamide] showed an IC50 [1] of 93 nM and an IC50 [2] of 4.8 nM.
`O=C(NCc1ccc2cc[nH]c2c1)N1CCc2cnc(NC3CCOCC3)nc2C1` [II-223, 2-(Tetrahydro-pyran-4-ylamino)-5,8-dihydro-6H-pyrido[3,4-d]pyrimidine-7-carboxylic acid (1H-indol-6-ylmethyl)-amide] gave an IC50 [1] of 186 nM and an IC50 [2] of 5.7 nM.
